Data as given in PMC7464559, “Synthesis, Optimization, Antifungal Activity, Selectivity, and CYP51 Binding of New 2-Aryl-3-azolyl-1-indolyl-propan-2-ols” (Pharmaceuticals, 2020).
Values after ≈ are worked out from the molar mass of the structure shown. “Also recorded” adds a separate entry of the source.

Tests used:
[1] = test system: CK98003 (Candida krusei); test: Anti-Candida in vitro assay, CK98003; assay type: cell-based; conditions: Pichia kudriavzevii; Candida krusei CK98003, mean of triplicate; read-out: MIC (IC80) CK98003
Experimental: (§1) Test fungal strains were obtained from the American Type Culture Collection (ATCC) or were clinical isolates from the Laboratory of Parasitology and Medical Mycology, Centre Hospitalier Universitaire (CHU) of Nantes. The strains were maintained on Sabouraud agar slants and were subcultured 24 h before used. The activity of the target compounds 8a–g and 11a–m was determined by the method previously described. Briefly, molecules were diluted in RPMI 1640 medium supplemented with 0.165 M morpholinopropanesulphonic acid (Sigma-Aldrich, Saint-Quentin Fallavier, France), 2% glucose, and antibiotics. Candida suspensions were prepared in RPMI 1640 medium (Sigma-Aldrich, Saint-Quentin Fallavier, France) adjusted to give a final concentration of 10^3 cells/mL, and a 96-well microplate (Nunc, D. Dutscher, Brumath, France) was seeded with 100 µL. Each concentration of molecules (100 µL) to be tested was added (in triplicate) and plates were incubated at 37 °C for 24 h. The cellular viability was evaluated on the Fluorolite 1000 (Dynatech, France) with an excitation at 550 nm and an emission at 590 nm after a 4 h incubation with 10 µL of Alamar Blue®. […] MIC was expressed as the mean of the triplicate values. KTC and FLC were used as standards.

[2] = target: T1, 11β-hydroxylase (CYP11B1) (Homo sapiens, UniProt P15538); test: In vitro inhibition of CYP11B1 (Schizosaccharomyces pombe SZ1); assay type: cell-based; conditions: inhibitor 100 nM to 5 µM, three to four independent experiments
T1 construct: expressed in transfected cells; host or cells: Schizosaccharomyces pombe strain SZ1
T1 sequence (P15538 25-503): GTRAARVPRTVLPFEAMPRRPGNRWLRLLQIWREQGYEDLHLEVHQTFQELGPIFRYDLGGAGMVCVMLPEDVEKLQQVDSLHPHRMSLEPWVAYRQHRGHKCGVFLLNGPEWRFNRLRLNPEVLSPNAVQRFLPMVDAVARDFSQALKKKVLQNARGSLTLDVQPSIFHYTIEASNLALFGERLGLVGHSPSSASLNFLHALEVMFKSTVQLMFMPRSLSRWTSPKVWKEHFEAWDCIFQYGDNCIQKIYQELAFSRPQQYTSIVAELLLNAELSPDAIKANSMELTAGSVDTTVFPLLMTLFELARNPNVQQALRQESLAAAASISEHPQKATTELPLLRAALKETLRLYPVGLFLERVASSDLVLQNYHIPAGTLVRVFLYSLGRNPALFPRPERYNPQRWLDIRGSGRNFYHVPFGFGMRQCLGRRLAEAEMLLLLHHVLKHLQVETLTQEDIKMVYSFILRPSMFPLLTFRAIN
Experimental: For the CYP11B1 assay, 11-deoxycortisol (RSS) was used as substrate, whereas 11-deoxycorticosterone (DOC) was used for the CYP11B2 assay. These non-radioactive steroids were purchased from Sima (Deisenhofen, Germany). Radioactive steroids were obtained from Amersham Pharmacia Biotech (Freiburg, Germany). Two Schizosaccharomyces pombe strains were used, SZ1 expressing CYP11B1 and MB164 expressing CYP11B2. The assays were performed as described previously by Bureik et al.. Exponentially growing fission yeast cells were cultivated by shaking and with good aeration at 30 °C in 500 µL Edinburgh Minimal Medium Glutamate (EMMG) containing supplements as required. Inhibitors were dissolved in ethanol at different concentrations, and equal volumes of ethanolic solutions were used in all cases (including controls). Final concentrations of inhibitors ranged from 100 nM to 5 µM. Cells were preincubated with the respective inhibitor solutions for 15 min prior to the addition of steroid substrates (100 nM DOC or 100 nM RSS, respectively). For detection of steroids, 1% of the total substrate amount was radioactively labeled as [^3H]RSS, [^3H]DOC, or [^14C]DOC. After 4 h (MB164) or 24 h (SZ1) cultures were extracted with chloroform and dried under vacuum. The residues were dissolved in 10 µL chloroform and spotted onto glass-backed silica-coated HPTLC plates (Kieselgel 60 F254, Merck; Darmstadt, Germany). In addition, small amounts of non-radioactive steroids were spotted as references. The HPTLC was developed twice in chloroform/methanol/water (300:20:1, v/v/v) and steroids identified after exposure to Fuji imaging plates and quantitated on a phosphoimager (BAS-2500, Fuji; Stamford, CT, USA).

[3] = test system: CA98002 (Candida albicans); test: Anti-Candida in vitro assay, CA98002; assay type: cell-based; conditions: Candida albicans CA98002, mean of triplicate; read-out: MIC (IC80) CA98002
Experimental: as §1

[4] = test system: ATCC2091 Candida albicans strain; test: Anti-Candida in vitro assay, ATCC2091; assay type: cell-based; conditions: Candida albicans ATCC2091, mean of triplicate; read-out: MIC (IC80) ATCC2091
Experimental: as §1

[5] = test system: CL98001 (Candida lusitaniae); test: Anti-Candida in vitro assay, CL98001; assay type: cell-based; conditions: Clavispora lusitaniae; Candida lusitaniae CL98001, mean of triplicate; read-out: MIC (IC80) CL98001
Experimental: as §1

[6] = test system: ATCC90018 Candida parapsilosis strain; test: Anti-Candida in vitro assay, ATCC90018; assay type: cell-based; conditions: Lodderomyces parapsilosis; Candida parapsilosis ATCC90018, mean of triplicate; read-out: MIC (IC80) ATCC90018
Experimental: as §1

[7] = test system: ATCC6258 Candida krusei strain; test: Anti-Candida in vitro assay, ATCC6258; assay type: cell-based; conditions: Pichia kudriavzevii; Candida krusei ATCC6258, mean of triplicate; read-out: MIC (IC80) ATCC6258
Experimental: as §1

[8] = target: T2, 17α-hydroxylase/17,20-lyase (CYP17) (Homo sapiens, UniProt P05093); test: In vitro inhibition of 17α-hydroxylase/17,20-lyase; assay type: biochemical; conditions: at 2.5 µM
T2 sequence (P05093 1-508): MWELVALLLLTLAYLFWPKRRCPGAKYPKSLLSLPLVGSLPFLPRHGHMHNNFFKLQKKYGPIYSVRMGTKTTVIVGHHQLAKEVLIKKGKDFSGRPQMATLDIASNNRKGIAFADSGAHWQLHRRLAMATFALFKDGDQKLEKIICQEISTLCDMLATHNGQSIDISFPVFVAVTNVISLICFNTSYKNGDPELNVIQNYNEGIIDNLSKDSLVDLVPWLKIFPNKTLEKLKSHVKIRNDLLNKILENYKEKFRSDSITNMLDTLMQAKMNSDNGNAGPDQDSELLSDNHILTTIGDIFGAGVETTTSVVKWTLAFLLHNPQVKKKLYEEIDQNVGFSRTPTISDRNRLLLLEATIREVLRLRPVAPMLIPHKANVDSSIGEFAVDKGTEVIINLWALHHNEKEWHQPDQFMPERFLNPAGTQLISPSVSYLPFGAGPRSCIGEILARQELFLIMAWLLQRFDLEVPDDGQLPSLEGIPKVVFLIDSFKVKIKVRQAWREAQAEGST
Experimental: The assay was performed similar to described methods [29, 52]. […] Microsomal protein was added to start the reaction. […] After the addition of 1 mL EtOAc, the vials were shaken then centrifuged. The organic phase was removed, vortexed with phosphate buffer (250 µL), 1 M aqueous HCl (50 µL), and then dried. Aliquots of 25 µL methanol, containing 250 pmol of fluorocortisol acetate as internal standard, were added to the extracts. The samples (20 µL) were submitted to HPLC (RP-8 column, methanol/water 1:1, v/v) and measured using UV (240 nm).

[9] = test system: CA98005 (Candida albicans); test: Anti-Candida in vitro assay, CA98005; assay type: cell-based; conditions: Candida albicans CA98005, mean of triplicate; read-out: MIC (IC80) CA98005
Experimental: as §1

Structure (SMILES)	MIC [1] [µg/mL]	CYP11B1 inhibition effect [2]	MIC [3] [µg/mL]	MIC [4] [µg/mL]	MIC [5] [µg/mL]	MIC [6] [µg/mL]	MIC [7] [µg/mL]	inhibition at […] [8] [%]	MIC [9] [µg/mL]
O[C@@](Cn1cncn1)(Cn1ccc2ccccc21)c1ccc(Cl)cc1Cl [(+)-(R)-8g]	19.4 (≈ 50 µM)	no inhibition	2.75 (≈ 7.1 µM)	1.01 (≈ 2.6 µM)	9.68 (≈ 25 µM)	> 38.7	24.4 (≈ 63 µM)	< 5	2.71 (≈ 6.99 µM)
O[C@](Cn1cncn1)(Cn1ccc2ccccc21)c1ccc(Cl)cc1Cl [(−)-(S)-8g]	0.039 (≈ 0.101 µM)	no inhibition	< 0.039	< 0.039	0.024 (≈ 0.062 µM)	0.027 (≈ 0.0697 µM)	0.167 (≈ 0.431 µM)	< 5	0.026 (≈ 0.0671 µM)
OC(Cn1cncn1)(Cn1ccc2ccccc21)c1ccc(Cl)cc1Cl (stereo not drawn) [Compound 8g, 2-(2,4-Dichlorophenyl)-3-(1H-indol-1-yl)-1-(1H-1,2,4-triazol-1-yl)-propan-2-ol]	3.56 (≈ 9.2 µM)	no inhibitory activity; also recorded: no inhibition	< 0.004	< 0.004	< 0.004	0.15 (≈ 0.387 µM)	0.08 (≈ 0.207 µM)	< 10	< 0.004
